Measurements reported in US20160331742A1, “TREATMENT OF CROHN'S DISEASE USING LOW DOSES OF LAQUINIMOD” (Teva Pharmaceutical Industries, Ltd., priority 2014, published 2016).

Tests used:
[1] = tested on: subjects suffering from active moderate to severe Crohn's disease; experiment: Phase III randomized, double-blind, placebo-controlled study of oral laquinimod in active moderate to severe Crohn's disease (12 weeks); type: in vivo, human; conditions: 0.25 mg/day oral vs 0.5 mg/day, Example 1
Procedure: A phase III, multicenter, randomized, double-blind, placebo-controlled study is conducted to evaluate Laquinimod in active moderate to severe Crohn's disease. There are ˜540 Crohn's disease patients enrolled, divided into 3 arms of ˜180 patients, randomized in a […] ratio (˜180 subjects on laquinimod 0.25 mg, ˜180 on laquinimod 0.5 mg, and ˜180 on placebo). One or more capsules containing laquinimod 0.25 mg, laquinimod 0.5 mg, or matching placebo are administered orally once daily; A loading dose regimen of double the maintenance/intended dose is given during the first two days of study drug treatment. Thereafter, starting on day 3, the daily maintenance/intended dose is administered. Patients with moderate to severe Crohn's disease (CD), as determined by a Crohn's Disease Activity Index (CDM) score of 220-450 (inclusive) and evidence of active endoscopic inflammatory disease, based on Crohn's Disease Endoscopic index of Severity (CDEIS) score >6 points. […] The timing of the ileocelonosoopy is arranged so that it takes place after the last day on which data are recorded for the CDAI assessment. […] Each endoscopy is recorded, and then read and scored by a central reader for endoscopic scores of CDEIS and SES-CD. […]

[2] = tested on: subjects suffering from active moderate to severe Crohn's disease; experiment: Phase III randomized, double-blind, placebo-controlled 52-week maintenance of remission study of laquinimod in Crohn's disease patients; type: in vivo, human; conditions: 0.25 mg/day oral vs 0.5 mg/day, Example 2
Procedure: A phase III, randomized, double-blind, placebo-controlled 52-week maintenance of remission study of laquinimod is conducted in Crohn's disease patients.
One or more capsules containing laquinimod 0.25 mg, laquinimod 0.5 mg, or matching placebo are administered orally once daily (QD)
Patients with a Response at Week 12 in any of the induction studies, TV5500-IMM-30009, TV5600-IMM-30012, or TV5500-IMM-10013, are re-randomized into this placebo-controlled maintenance study. Response at Week 12 in those induction studies is defined as a Crohn's Disease Activity Index (CDAI) reduction of at least 10 points from Baseline at Week 12. No new patients are included in this maintenance study. […]
Ileonclonoscopy is performed at Baseline Week 12b Visit from the induction study) and Week 52 to directly assess endoscopic disease and mucosal healing. The timing of the ileocolonoscopy is arranged so that it takes place after the final day on which data is recorded for the Week 52 CDAI assessment, and allows time for adequate ileocolonoscopy preparation; consequently, the Week 52 ileocolcnoscopy is performed separately from but within 7 days of) the other Week 52 assessments each endosoopy is recorded, read, and scored by a central reader for an endoscopic score of cDEIS, and mucosal healing determination, […]

[3] = tested on: subjects suffering from active moderate to severe Crohn's disease; experiment: Phase III open-label 64-week induction and maintenance study of laquinimod in Crohn's disease patients; type: in vivo, human; conditions: 0.25 mg/day oral vs 0.5 mg/day, Example 3
Procedure: A phase III, randomized, open-label 64-week induction and maintenance study of laquinimod is conducted in Crohn's disease patients,
One capsule containing laquinimod 0.25 mg or laquinimod 0.5 mg is administered orally once daily at the same hour:
Response at Week 12 in those induction studies is defined as a Crohn's Disease Activity Index (COAT) reduction, of at least 70 points from Baseline. It is anticipated that many non-responders received placebo in the induction studies, so that TV5600-IMM-30011 is their first opportunity to be exposed to any dose of laquinimod. No new patients are included in this study.
Treatment duration is up to 64 weeks. The initial phase of the treatment duration is 12 weeks. Scheduled in-clinic visits are conducted at Baseline (Week 0, Visit 1) and at Weeks 2, 4, 8, and 12. The Baseline visit (Week 0, Visit 1) for this study is the same as the Week 12 visit in the relevant induction study (i.e., not an additional visit). Some additional procedures may be performed on this day, as a part of the TV5600-114M-30011 protocol but not the induction study protocol. Unscheduled visits for safety or for any other reason are conducted at any time during the study. At Week 12 (and at subsequent visits), patients undergo a clinical assessment and are offered either release from the study or continuation of maintenance therapy at the existing dose. […]

[4] = cited from earlier work

## CCN(C(=O)c1c(O)c2c(Cl)cccc2n(C)c1=O)c1ccccc1 [laquinimod]
[1]
  adverse effects of 0.25 mg/day as compared to 0.5 mg/day: maintaining or reducing adverse effects
  efficacy of 0.25 mg/day as compared to 0.5 mg/day (symptoms, clinical response, remission, CDAI, CDEIS, mucosal healing, CRP, fecal calprotectin, IBDQ, WPAI:CD, EQ-5D): at least as effective, or more effective
[2]
  adverse effects of 0.25 mg/day as compared to 0.5 mg/day: maintaining or reducing adverse effects
  efficacy of 0.25 mg/day as compared to 0.5 mg/day (symptoms, clinical response, remission, CDAI, CDEIS, mucosal healing, CRP, fecal calprotectin, IBDQ, WPAI:CD, EQ-5D): at least as effective, or more effective
[3]
  adverse effects of 0.25 mg/day as compared to 0.5 mg/day: maintaining or reducing adverse effects
  efficacy of 0.25 mg/day as compared to 0.5 mg/day (symptoms, clinical response, remission, CDAI, CRP, fecal calprotectin, IBDQ, WPAI:CD, EQ-5D): at least as effective, or mare effective
[4]
  oral bioavailability: high
